Read-outs that look alike come from different tables or passages of the source.

The experiment relates to A2780 cells. Put plainly: In-vitro cell proliferation assay (SRB, 72 hours). Format: cell-based. To be noted: read-out: Cell Proliferation (IC50).
Where [1] appears, read: Homo sapiens, A2780, 72 h, A2780 cells, 72 hours, SRB.

Protocol: Assay 2: In-Vitro Cell Proliferation Assay
Assay Method. […] The compounds were then further diluted to 10× final concentration in culture media, whereupon 20 μL of each dilution was added to the plated cells with controls (e.g. DMSO and blank) to make a final volume of 200 μL. The final DMSO concentration in each well was 0.1%. The plates were then incubated for 72 hours at 37° C. in a 5% CO2 incubator. The number of viable cells was then assessed using sulforhodamine B (SRB) assay. Cells were fixed at 4° C. for 1 hour with the addition of 50 μL 30% trichloroacetic acid (TCA) to make a final concentration of 6% TCA. The plates were washed four times with H2O and allowed to dry for at least 1 hour, whereupon 100 μL of a 4% SRB in 1% acetic acid solution was added to each well and incubated at room temperature for at least 30 min. The plates were then washed three times with 1% acetic acid, dried, and treated with 100 μL of 10 mM Tris-Base solution. The plates were then read in a microplate reader at an absorbance of 570 nm. Background was generated on a separate plate with media only.
Determination of IC50 Values. First, the signals from the background plate were averaged, then the background was subtracted from the test plates.

Take `Cc1nn(C)c(C)c1C(=O)N1CCC2(CC1)CC2CNC(=O)c1cc2ccncc2o1` (single isomer, unassigned) [Example 300, N-[[6-(1,3,5-trimethylpyrazole-4-carbonyl)-6-azaspiro[2.5]octan-2-yl]methyl]furo[2,3-c]pyridine-2-carboxamide]: where the note is “A2780 cells, 72 hours, SRB”, the IC50 came to 335 nM.
Same read-out and setting: in the case of `Cc1nn(C)c(C)c1C(=O)N1CCC2(CC1)CC2CNC(=O)c1cc2ccncc2o1` (single isomer, unassigned) [Example 301, N-[[6-(1,3,5-trimethylpyrazole-4-carbonyl)-6-azaspiro[2.5]octan-2-yl]methyl]furo[2,3-c]pyridine-2-carboxamide] it was 4.21 nM.
In the case of `Cc1nc(C)c(C(=O)N2CCC3(CC2)CC3CNC(=O)c2cc3ccncc3o2)o1` (single isomer, unassigned) [Example 384, N-[[6-(2,4-dimethyloxazole-5-carbonyl)-6-azaspiro[2.5]octan-2-yl]methyl]furo[2,3-c]pyridine-2-carboxamide (single isomer)], under setting [1], the IC50 is 436 nM.
On the same count and under the same terms, in the case of `O=C(NCC1CC12CCN(C(=O)C1CCOCC1)CC2)c1cc2cnccc2[nH]1` (stereo not shown) [Example 10, N-[[8-(tetrahydropyran-4-carbonyl)-8-azaspiro[2.5]octan-2-yl]methyl]-1H-pyrrolo[3,2-c]pyridine-2-carboxamidc] it was 791 nM.
Take `CC(C)(C)OC(=O)N1CCC2(CC1)CC(CNC(=O)c1ccc3nccn3c1)C2` [Example 21, tert-butyl 2-((imidazo[1,2-a]pyridine-6-carboxamido)methyl]-7-azaspiro[3.5]nonane-7-carboxylate]: the IC50 under setting [1] stood at 2000 nM.
Same read-out and setting: in the case of `O=C(NCC1CC12CCN(C(=O)Cn1ccnc1)CC2)c1cc2ccncc2o1` (stereo not shown) [Example 26, N-[[6-(2-imidazol-1-ylacetyl)-6-azaspiro[2.5]octan-2-yl]methyl]furo[2,3-c]pyridine-2-carboxamide] it was 2000 nM.
On to `O=C(NCC1CC12CCN(C(=O)CCC(F)(F)F)CC2)c1cc2ccncc2o1` (stereo not shown) [Example 27, N-[[6-(4,4,4-trifluorobutanoyl)-6-azaspiro[2.5]octan-2-yl]methyl]furo[2,3-c]pyridine-2-carboxamide], for which, under setting [1], the IC50 was found to be 842 nM.
On the same count and under the same terms, in the case of `CS(=O)(=O)c1cccc(CC(=O)N2CCC3(CC2)CC3CNC(=O)c2cc3ccncc3o2)c1` (stereo not shown) [Example 28, N-[[6-[2-(3-methylsulfonylphenyl)acetyl]-6-azaspiro[2.5]octan-2-yl]methyl]furo[2,3-c]pyridine-2-carboxamide] it was 616 nM; in that of `CC(C)(C)CC(=O)N1CCC2(CC1)CC2CNC(=O)c1cc2ccncc2o1` (stereo not shown) [Example 29, N-[[6-(3,3-dimethylbutanoyl)-6-azaspiro[2.5]octan-2-yl]methyl]furo[2,3-c]pyridine-2-carboxamide], 3.03 nM; in that of `CN1CCN(CC(=O)N2CCC3(CC2)CC3CNC(=O)c2cc3ccncc3o2)CC1` (stereo not shown) [Example 30, N-[[6-[2-(4-methylpiperazin-1-yl)acetyl]-6-azaspiro[2.5]octan-2-yl]methyl]furo[2,3-c]pyridine-2-carboxamide], 614 nM.
The same measure, in the same setting: in the case of `N#Cc1cccc(CC(=O)N2CCC3(CC2)CC3CNC(=O)c2cc3ccncc3o2)c1` (stereo not shown) [Example 31, N-[[6-[2-(3-cyanophenyl)acetyl]-6-azaspiro[2.5]octan-2-yl]methyl]furo[2,3-c]pyridine-2-carboxamide] it was 12.1 nM.
As for `O=C(NCC1CC12CCN(C(=O)CC1CC1)CC2)c1cc2ccncc2o1` (stereo not shown) [Example 32, N-[[6-(2-cyclopropylacetyl)-6-azaspiro[2.5]octan-2-yl]methyl]furo[2,3-c]pyridine-2-carboxamide], the IC50 under setting [1] was 2000 nM.
Still for that read-out and setting: in the case of `O=C(NCC1CC12CCN(C(=O)CN1CCCC1)CC2)c1cc2ccncc2o1` (stereo not shown) [Example 33, N-[[6-(2-pyrrolidin-1-ylacetyl)-6-azaspiro[2.5]octan-2-yl]methyl]furo[2,3-c]pyridine-2-carboxamide] it was 2000 nM; in that of `Cc1cc(CC(=O)N2CCC3(CC2)CC3CNC(=O)c2cc3ccncc3o2)on1` (stereo not shown) [Example 34, N-[[6-[2-(3-methylisoxazol-5-yl)acetyl]-6-azaspiro[2.5]octan-2-yl]methyl]furo[2,3-c]pyridine-2-carboxamide], 379 nM.
Take `O=C(NCC1CC12CCN(C(=O)CN1CCCCC1)CC2)c1cc2ccncc2o1` (stereo not shown) [Example 35, N-[[6-[2-(1-piperidyl)acetyl]-6-azaspiro[2.5]octan-2-yl]methyl]furo[2,3-c]pyridine-2-carboxamide]: the IC50 under setting [1] is 2000 nM.
Still for that read-out and setting: in the case of `O=C(NCC1CC12CCN(C(=O)CC1CCOCC1)CC2)c1cc2ccncc2o1` (stereo not shown) [Example 36, N-[[6-(2-tetrahydropyran-4-ylacetyl)-6-azaspiro[2.5]octan-2-yl]methyl]furo[2,3-c]pyridine-2-carboxamide] it was 185 nM.
The same measure, in the same setting: in the case of `O=C(NCC1CC12CCN(C(=O)CC1CCCO1)CC2)c1cc2ccncc2o1` (stereo not shown) [Example 37, N-[[6-(2-tetrahydrofuran-2-ylacetyl)-6-azasptro[2.5]octan-2-yl]methyl]furo[2,3-c]pyridine-2-carboxamide] it was 643 nM.
Same read-out and setting: in the case of `CC(C)(C)OCC(=O)N1CCC2(CC1)CC2CNC(=O)c1cc2ccncc2o1` (stereo not shown) [Example 38, N-[[6-(2-tert-butoxyacetyl)-6-azaspiro[2.5]octan-2-yl]methyl]furo[2,3-c]pyridine-2-carboxamide] it was 18.8 nM.
Turning to `O=C(NCC1CC12CCN(C(=O)Cc1cccnc1)CC2)c1cc2ccncc2o1` (stereo not shown) [Example 39, N-[[6-[2-(3-pyridyl)acetyl]-6-azaspiro[2.5]octan-2-yl]methyl]furo[2,3-c]pyndine-2-carboxamide], under setting [1], the IC50 was 232 nM.
In the case of `O=C(NCC1CC12CCN(C(=O)CC1CCN(CC(F)(F)F)CC1)CC2)c1cc2cnccc2[nH]1` (stereo not shown) [Example 40, N-[[6-[2-[1-(2,2,2-trifluoroethyl)-4-piperidyl]acetyl]-6-azaspiro[2.5]octan-2-yl]methyl]-1H-pyrrolo[3,2-c]pyridine-2-carboxamide], under setting [1], the IC50 amounted to 24.3 nM.
On the same count and under the same terms, in the case of `CC(C)CC(=O)N1CCC2(CC1)CC2CNC(=O)c1cc2cnccc2[nH]1` (stereo not shown) [Example 46, N-[[6-(3-methylbutanoyl)-6-azaspiro[2.5]octan-2-yl]methyl]-1H-pyrrolo[3,2-c]pyridine-2-carboxamide] it was 402 nM; in that of `O=C(Cc1ccccc1)N1CCC2(CC1)CC2CNC(=O)N1Cc2ccncc2C1` (stereo not shown) [Example 47, N-[[6-(2-phenylacetyl)-6-azaspiro[2.5]octan-2-yl]methyl]-1,3-dihydropyrrolo[3,4-c]pyridine-2-carboxamide], 12.6 nM.
`O=C(NCC1CC12CCN(C(=O)Cc1cnccn1)CC2)c1cc2ccncc2o1` (stereo not shown) [Example 50, N-[[6-(2-pyrazin-2-ylacetyl)-6-azasptro[2.5]octan-2-yl]methyl]furo[2,3-c]pyridine-2-carboxamide]: under setting [1], the IC50 stood at 2000 nM.
On the same count and under the same terms, in the case of `O=C(NCC1CC12CCN(C(=O)CN1CCOCC1)CC2)c1cc2ccncc2o1` (stereo not shown) [Example 51, N-[[6-(2-morpholinoacetyl)-6-azaspiro[2.5]octan-2-yl]methyl]furo[2,3-c]pyridine-2-carboxamide] it was 367 nM.
Still for that read-out and setting: in the case of `O=C(NCC1CC12CCN(C(=O)CC1CCCCO1)CC2)c1cc2ccncc2o1` (stereo not shown) [Example 52, N-[[6-(2-tetrahydropyran-2-ylacetyl)-6-azaspiro[2.5]octan-2-yl]methyl]furo[2,3-c]pyridine-2-carboxamide] it was 674 nM.
The same measure, in the same setting: in the case of `CC(C(=O)N1CCC2(CC1)CC2CNC(=O)c1cc2ccncc2o1)N1CCCC1` (stereo not shown) [Example 53, N-[[6-(2-pyrrolidin-1-ylpropanoyl)-6-azaspiro[2.5]octan-2-yl]methyl]furo[2,3-c]pyridine-2-carboxamide] it was 846 nM; in that of `CN(C)C(=O)CCC(=O)N1CCC2(CC1)CC2CNC(=O)c1cc2ccncc2o1` (stereo not shown) [Example 55, N-[[6-[4-(dimethylamino)-4-oxo-butanoyl]-6-azaspiro[2.5]octan-2-yl]methyl]furo[2,3-c]pyridine-2-carboxamide], 2000 nM; in that of `CN1CC(C(=O)N2CCC3(CC2)CC3CNC(=O)c2cc3ccncc3o2)CC1=O` (stereo not shown) [Example 56, N-[[6-(1-methyl-5-oxo-pyrrolidine-3-carbonyl)-6-azaspiro[2.5]octan-2-yl]methyl]furo[2,3-c]pyridine-2-carboxamide], 2000 nM.
Turning to `O=C(NCC1CC12CCN(C(=O)CN1CCCC1=O)CC2)c1cc2ccncc2o1` (stereo not shown) [Example 57, N-[[6-[2-(2-oxopyrrolidin-1-yl)acetyl]-6-azaspiro[2.5]octan-2-yl)methyl]furo[2,3-c]pyridine-2-carboxamide], the IC50 under setting [1] is 1600 nM.
`O=C(NCC1CC12CCN(C(=O)C1CC1(F)F)CC2)c1cc2ccncc2o1` (stereo not shown) [Example 58, N-[[6-(2,2-difluorocyclopropanecarbonyl)-6-azaspiro[2.5]octan-2-yl]methyl]furo(2,3-c]pyridine-2-carboxamide]: where the note is “Homo sapiens, A2780, 72 h”, the IC50 came to 2000 nM.
As for `O=C(NCC1CC12CCN(C(=O)C1CCOC1)CC2)c1cc2ccncc2o1` (stereo not shown) [Example 59, N-[[6-(tetrahydrofuran-3-carbonyl)-6-azaspiro[2.5]octan-2-yl]methyl]furo[2,3-c]pyridine-2-carboxamide], the IC50 under setting [1] worked out at 2000 nM.
Take `O=C(NCC1CC12CCN(C(=O)C1CCOCC1)CC2)c1cc2ccncc2o1` (stereo not shown) [Example 60, N-[[6-(tetrahydropyran-4-carbonyl)-6-azaspiro[2.5]octan-2-yl]methyl]furo[2,3-c]pyridine-2-carboxamide]: the IC50 under setting [1] is 1530 nM.
Still for that read-out and setting: in the case of `O=C(NCC1CC12CCN(C(=O)C1CCCO1)CC2)c1cc2ccncc2o1` (stereo not shown) [Example 61, N-[[6-(tetrahydrofuran-2-carbonyl)-6-azaspiro[2.5]octan-2-yl]methyl]furo[2,3-c]pyridine-2-carboxamide] it was 2000 nM; in that of `O=CNCC(=O)N1CCC2(CC1)CC2CNC(=O)c1cc2ccncc2o1` (stereo not shown) [Example 62, N-[[6-(2-formamidoacetyl)-6-azaspiro[2.5]octan-2-yl]methyl]furo[2,3-c]pyridine-2-carboxamide], 2000 nM.

The values are drawn from US10730889B2, “Amido spirocyclic amide and sulfonamide derivatives” (Forma TM, LLC, priority 2012, dated 2020).
